# Test results: ChEMBL document CHEMBL1157741, “Synthesis and antituberculosis activity of novel mefloquine-isoxazole carboxylic esters as prodrugs” (Bioorg Med Chem Lett, 2010)
# Test system: Mycobacterium tuberculosis
# Assay: Antimicrobial activity against Mycobacterium bovis BCG
# Assay type: functional
# Conditions: variant bovis BCG
row,SMILES,MIC
1,CCOC(=O)c1cc(COc2cc(C(F)(F)F)nc3c(C(F)(F)F)cccc23)on1,< 0.5 µM
2,O=C(O)c1cc(COc2cc(C(F)(F)F)nc3c(C(F)(F)F)cccc23)on1,> 128 µM
